# Test results as given in US20220338477A1, “MYCOBACTERIUM BACTERICIDE” (SANKEI CO., LTD., priority 2019, published 2022).
# Experiments:
# [1] = test system: chromosomal DNA of M. intracellulare; experiment: Pulsed-field gel electrophoresis of chromosomal DNA after disinfection of M. intracellulare; type: cell-based, Mycobacterium intracellulare; details: compared with water
# From the text: In order to study the disinfection mechanism of chlorous acid aqueous solutions, with the understanding that a chlorous acid aqueous solution is unlikely to disinfect by acting on the bacterial surface in view of the results of SEM, chromosomal DNA was extracted from bacteria after disinfection, and the state of the chromosomal DNA was examined through pulsed-field gel electrophoresis in order to study the effect of a chlorous acid aqueous solution on chromosomal DNA of bacteria.
# M. intracellulare = experiment: Test for studying disinfecting effect of chlorous acid aqueous solution and sodium hypochlorite on M. intracellulare; type: cell-based, Mycobacterium intracellulare; details: for free chlorine concentration (as Cl) at which a disinfecting effect (reducing the bacteria count 4 log or greater) is exhibited: contact time 1 min
# Method: (§1) As a measuring method of free chlorine (as Cl), a buffer and a DPD indicator are added to a sample and a wavelength of 510 nm is measured with an absorption spectrophotometer, and for measurement of free chlorine (as Cl) in the presence of an organic matter, measurement is taken at a wavelength of 655 nm using a TMB reagent to find the concentration from the measurement values. Further, a method of conducting a test for studying the disinfecting effect prepares free chlorine (as Cl) of a test agent by a DPD method, contacts each agent with an organic matter-containing bacterial solution, neutralizes the solution with sodium thiosulfate after a certain period of time has passed, and checks the viable bacteria count of the neutral solution.
# For the “chlorous acid aqueous solution formulation manufactured with chlorous acid aqueous solution” prepared based on the preparation method described above, the concentration of “chlorous acid aqueous solution” was measured based on the “Quantification method of chlorous acid aqueous solution” described above, and buffer prepared to achieve the free chlorine concentration described in each Example (phosphate buffer comprising dipotassium hydrogen phosphate and potassium dihydrogen phosphate) was used to prepare the chlorous acid aqueous solution of each Example.
# The disinfecting effects of chlorous acid aqueous solutions and sodium hypochlorite on M. intracellulare were studied in the absence of an organic matter and in the presence of an organic matter, i.e., 0.5% bovine serum albumin (hereinafter, BSA) (FIG. 1). If an effect of reducing the bacteria count is 4 log or greater, the agent is considered as having a disinfecting effect.
# [2] = test system: other mycobacteria (JCM135429, JCM135430, JCM135431, JCM135432, JCM6387, JCM6390, JCM13569); experiment: Disinfecting effect on other mycobacteria; type: cell-based
# Method: as §1
# Additional studies were conducted to find whether a disinfecting effect is observed on other mycobacteria. In the absence of organic matters, an effect of chlorous acid aqueous solutions was also observed on other mycobacteria at free chlorine of 50 ppm or greater, whereas an effect was not observed from sodium hypochlorite at 200 ppm (FIG. 7). The same results as the results for M. intracellulare were obtained.
compound,measurement,setting,value
OCl [sodium hypochlorite],state of chromosomal DNA band in pulsed-field gel electrophoresis,[1],a band is formed at the same position as water
same,disinfecting effect (FIG. 1),M. intracellulare; absence and presence of organic matter (0.5% BSA),not found
same,free chlorine concentration (as Cl) at which a disinfecting effect (reducing the bacteria count 4 log or greater) is exhibited,M. intracellulare; absence of an organic matter,> 200 ppm
same,free chlorine concentration (as Cl) at which a disinfecting effect (reducing the bacteria count 4 log or greater) is exhibited,M. intracellulare; presence of an organic matter (0.5% BSA),> 1000 ppm
same,free chlorine at which a disinfecting effect was observed,[2]; absence of organic matters (FIG. 7),> 200 ppm
same,free chlorine at which a disinfecting effect was observed,[2]; presence of 0.5% BSA (FIG. 8),> 1000 ppm
